Target: T1, caspase-1 (Homo sapiens, UniProt P29466)
T1 sequence (P29466 120-297 limits assumed): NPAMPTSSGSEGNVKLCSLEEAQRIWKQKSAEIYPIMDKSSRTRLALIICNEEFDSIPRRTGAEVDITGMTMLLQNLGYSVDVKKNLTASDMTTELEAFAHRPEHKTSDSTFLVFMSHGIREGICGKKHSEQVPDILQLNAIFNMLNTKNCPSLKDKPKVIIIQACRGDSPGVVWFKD
T1 sequence (P29466 317-404 limits assumed): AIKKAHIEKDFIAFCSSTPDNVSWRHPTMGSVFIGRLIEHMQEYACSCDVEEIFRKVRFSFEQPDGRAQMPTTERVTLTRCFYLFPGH
Assay: Reaction time of probes for caspase-1
Type: biochemical
Details: probe 5 μM, Cas-1 2 U/mL, assay buffer, 37 °C
Procedure: The spectral and chemical properties of all probes were then evaluated. Upon interaction with Cas-1, the specific peptide of the probes is cleaved, leading to the disruption of the FRET process in the system and the recovery of donor fluorescence (Fig. 2a). Prior to fluorescence detection, the UV-vis absorption spectra of the probes were acquired. […] Subsequently, the sensitivity of the probes towards Cas-1 was measured in HEPES buffer (50 mM HEPES, 50 mM NaCl, 0.1% chaps, 5% glycerol, 10 mM DTT, 10 mM EDTA). […] The response differences among the probes were more intuitively observed by analyzing the standard curves of fluorescence intensity at 585 nm against the concentration of Cas-1 (Fig. 2b). […] The reaction kinetics of the probes were also measured by monitoring the fluorescence intensity of FPy1, YPy1 and WPy1 (0.5–4 μM) following incubation with Cas-1 (2 U mL^−1) (Fig. S3a–f). […] The reaction time of the probes was also investigated by monitoring the fluorescence spectra of the probes (5 μM) incubated with Cas-1 (2 U mL^−1) at various time intervals (Fig. S4a–c). […] Finally, the selectivity of the probes was evaluated. […]
To investigate the sensitivity of the probes for caspase-1, varying concentration of caspase-1 (0, 0.2, 0.4, 0.6, 0.8, 1.0, 1.25, 1.5, 1.75, 2, 2.5, 3 U/mL) were incubated with FPy1 (5 μM), YPy1 (5 μM) and WPy1 (5 μM) respectively in caspase-1 assay buffer (50 mM HEPES, 50 mM NaCl, 0.1 % chaps, 5 % glycerol, 10 mM DTT, 10 mM EDTA) at 37 °C for 2 hours. Fluorescence spectra were recorded using Hitachi F-2700 spectrophotometer with an excitation at 510 nm (Photomultiplier voltage 700 V; Slit widths ex: 10 nm and em =5.0 nm). The fluorescence intensity of FPy1, YPy1 and WPy1 at 585 nm were plotted against the concentration of caspase-1, and a linear regression fitted from the corresponding concentration of caspase-1, and linear regression was applied to determine the slope k. The limit of detection (LoD) was calculated from 3σ/k, in which σ represents the standard deviation of 15 blank measurements. […]

| Substance | time to maximum fluorescence intensity at 585 nm (reaction time) |
| --- | --- |
| –FLTDG– [FPy1, RhoB donor, hNR quencher] | ≤ 40 min |
| –YVADG– [YPy1, caspase-1-responsive FRET probe with recognition peptide –YVADG–; RhoB donor, hNR quencher] | 60 min |

From paper PMC12598616, “Design and optimization of caspase-1-responsive fluorescent probes for pyroptosis imaging and anti-pyroptosis drug screening” (Chemical Science, 2025)
